Measurements as given in patent US9255090B2, “Heterocyclyl derivatives and their use as prostaglandin D2 receptor modulators” (Actelion Pharmaceuticals Ltd., priority 2012, dated 2016).

Target: hCRTH2 receptor (Homo sapiens (Human), UniProt Q9Y5Y4)
Test: hCRTH2 receptor membranes radioligand (3H-PGD2) displacement assay
Assay type: binding
Details: 3H-PGD2 radioligand displacement, HEK293-hCRTH2 membranes
Procedure, shortened: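 HEK293-hCRTH2 membranes, 20 μg/well; 3H-PGD2 added at 2.5 nM; binding buffer 50 mM Tris, 10 mM MnCl2, 1 mM EDTA, pH 7.0; 90 min RT; GF/C filtration, scintillation count. Nonspecific binding: PGD2 at […].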

hCRTH2 receptor, sequence (Q9Y5Y4 whole entry): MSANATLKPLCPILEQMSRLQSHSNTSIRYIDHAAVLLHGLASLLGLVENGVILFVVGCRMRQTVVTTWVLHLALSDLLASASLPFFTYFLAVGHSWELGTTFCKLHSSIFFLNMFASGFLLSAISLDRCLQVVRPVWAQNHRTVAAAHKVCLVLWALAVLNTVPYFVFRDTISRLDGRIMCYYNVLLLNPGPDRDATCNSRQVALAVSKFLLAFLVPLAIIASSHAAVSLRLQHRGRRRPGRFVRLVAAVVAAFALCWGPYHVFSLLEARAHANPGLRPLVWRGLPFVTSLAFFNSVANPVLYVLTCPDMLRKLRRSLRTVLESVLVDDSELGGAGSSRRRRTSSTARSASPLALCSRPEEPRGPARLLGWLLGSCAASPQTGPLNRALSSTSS

Compound	IC50
COc1ccc(CC(=O)O)cc1-c1ccc(F)c2c1CCN(C(=O)CCc1cn(C)c3ccccc13)C2 [Example 105, (3-{8-Fluoro-2-[3-(1-methyl-1H-indol-3-yl)-propionyl]-1,2,3,4-tetrahydro-isoquinolin-5-yl}-4-methoxy-phenyl)-acetic acid]	17.7 nM
COc1ccc(CC(=O)O)cc1-c1ccc(F)c2c1CN(C(=O)C[C@H](C)c1ccccc1)CC2 [Example 107, {3-[5-Fluoro-2-((S)-3-phenyl-butyryl)-1,2,3,4-tetrahydro-isoquinolin-8-yl]-4-methoxy-phenyl}-acetic acid]	18.3 nM
COc1ccc(CC(=O)O)cc1-c1ccc(F)c2c1CN(C(=O)C1Cc3ccccc3C1)CC2 [Example 110, {3-[5-Fluoro-2-(indane-2-carbonyl)-1,2,3,4-tetrahydro-isoquinolin-8-yl]-4-methoxy-phenyl}-acetic acid]	172 nM
COc1ccc(CC(=O)O)cc1-c1ccc(F)c2c1CN(C(=O)CC1Cc3ccccc3C1)CC2 [Example 111, {3-[5-Fluoro-2-(2-indan-2-yl-acetyl)-1,2,3,4-tetrahydro-isoquinolin-8-yl]-4-methoxy-phenyl}-acetic acid]	8.11 nM
COc1ccc(CC(=O)O)cc1-c1ccc(F)c2c1CN(C(=O)CCCc1ccccc1)CC2 [Example 117, {3-[5-Fluoro-2-(4-phenyl-butyryl)-1,2,3,4-tetrahydro-isoquinolin-8-yl]-4-methoxy-phenyl}-acetic acid]	5.41 nM
COc1ccc(CC(=O)O)cc1-c1ccc(F)c2c1CN(C(=O)CCC(=O)c1ccccc1)CC2 [Example 118, {3-[5-Fluoro-2-(4-oxo-4-phenyl-butyryl)-1,2,3,4-tetrahydro-isoquinolin-8-yl]-4-methoxy-phenyl}-acetic acid]	38.6 nM
COc1ccc(CC(=O)O)cc1-c1ccc(F)c2c1CN(C(=O)Cc1cn(C)c3ccccc13)CC2 [Example 119, (3-{5-Fluoro-2-[2-(1-methyl-1H-indol-3-yl)-acetyl]-1,2,3,4-tetrahydro-isoquinolin-8-yl}-4-methoxy-phenyl)-acetic acid]	69.5 nM
COc1ccc(CC(=O)O)cc1-c1ccc(F)c2c1CN(C(=O)Cc1noc3ccccc13)CC2 [Example 121, {3-[2-(2-Benzo[d]isoxazol-3-yl-acetyl)-5-fluoro-1,2,3,4-tetrahydro-isoquinolin-8-yl]-4-methoxy-phenyl}-acetic acid]	47.2 nM
COc1ccc(CC(=O)O)cc1-c1ccc(F)c2c1CN(C(=O)Cc1n[nH]c3ccccc13)CC2 [Example 124, {3-[5-Fluoro-2-(2-1H-indazol-3-yl-acetyl)-1,2,3,4-tetrahydro-isoquinolin-8-yl]-4-methoxy-phenyl}-acetic acid]	10.5 nM
COc1ccc(CC(=O)O)cc1-c1ccc(F)c2c1CN(C(=O)CCn1ncc3cc(F)ccc31)CC2 [Example 126, (3-{5-Fluoro-2-[3-(5-fluoro-indazol-1-yl)-propionyl]-1,2,3,4-tetrahydro-isoquinolin-8-yl}-4-methoxy-phenyl)-acetic acid]	9.54 nM
COc1ccc(CC(=O)O)cc1-c1ccc(F)c2c1CN(C(=O)CC1CCCCC1)CC2 [Example 127, {3-[2-(2-Cyclohexyl-acetyl)-5-fluoro-1,2,3,4-tetrahydro-isoquinolin-8-yl]-4-methoxy-phenyl}-acetic acid]	176 nM
COc1ccc(CC(=O)O)cc1-c1ccc(F)c2c1CN(C(=O)CC1(O)CCCCC1)CC2 [Example 128, (3-{5-Fluoro-2-[2-(1-hydroxy-cyclohexyl)-acetyl]-1,2,3,4-tetrahydro-isoquinolin-8-yl}-4-methoxy-phenyl)-acetic acid]	538 nM
COc1ccc(CC(=O)O)cc1-c1ccc(F)c2c1CN(C(=O)CC(C)(C)C)CC2 [Example 129, {3-[2-(3,3-Dimethyl-butyryl)-5-fluoro-1,2,3,4-tetrahydro-isoquinolin-8-yl]-4-methoxy-phenyl}-acetic acid]	913 nM
COc1ccc(CC(=O)O)cc1-c1ccc(F)c2c1CN(C(=O)NCc1ccccc1F)CC2 [Example 130, {3-[5-Fluoro-2-(2-fluoro-benzylcarbamoyl)-1,2,3,4-tetrahydro-isoquinolin-8-yl]-4-methoxy-phenyl}-acetic acid]	17.7 nM
COc1ccc(CC(=O)O)cc1-c1ccc(F)c2c1CN(C(=O)NCc1cccc(F)c1)CC2 [Example 131, {3-[5-Fluoro-2-(3-fluoro-benzylcarbamoyl)-1,2,3,4-tetrahydro-isoquinolin-8-yl]-4-methoxy-phenyl}-acetic acid]	60.1 nM
COc1ccc(CC(=O)O)cc1-c1ccc(F)c2c1CN(C(=O)NCCc1ccccc1)CC2 [Example 133, [3-(5-Fluoro-2-phenethylcarbamoyl-1,2,3,4-tetrahydro-isoquinolin-8-yl)-4-methoxy-phenyl]-acetic acid]	13 nM
COc1ccc(CC(=O)O)cc1-c1ccc(F)c2c1CN(C(=O)NCc1ccccc1Cl)CC2 [Example 134, {3-[2-(2-Chloro-benzylcarbamoyl)-5-fluoro-1,2,3,4-tetrahydro-isoquinolin-8-yl]-4-methoxy-phenyl}-acetic acid]	21.5 nM
COc1ccccc1CNC(=O)N1CCc2c(F)ccc(-c3cc(CC(=O)O)ccc3OC)c2C1 [Example 135, {3-[5-Fluoro-2-(2-methoxy-benzylcarbamoyl)-1,2,3,4-tetrahydro-isoquinolin-8-yl]-4-methoxy-phenyl}-acetic acid]	19.6 nM
COc1ccc(CC(=O)O)cc1-c1ccc(F)c2c1CN(C(=O)NCc1ccccc1)CC2 [Example 136, [3-(2-Benzylcarbamoyl-5-fluoro-1,2,3,4-tetrahydro-isoquinolin-8-yl)-4-methoxy-phenyl]-acetic acid]	30.6 nM
CCCNC(=O)N1CCc2c(F)ccc(-c3cc(CC(=O)O)ccc3OC)c2C1 [Example 137, [3-(5-Fluoro-2-propylcarbamoyl-1,2,3,4-tetrahydro-isoquinolin-8-yl)-4-methoxy-phenyl]-acetic acid]	764 nM
CCOC(=O)N1CCc2c(F)ccc(-c3cc(CC(=O)O)ccc3OC)c2C1 [Example 141, 8-(5-Carboxymethyl-2-methoxy-phenyl)-5-fluoro-3,4-dihydro-1H-isoquinoline-2-carboxylic acid ethyl ester]	187 nM
COc1ccc(CC(=O)O)cc1-c1ccc(F)c2c1CN(C(=O)OCC(C)C)CC2 [Example 142, 8-(5-Carboxymethyl-2-methoxy-phenyl)-5-fluoro-3,4-dihydro-1H-isoquinoline-2-carboxylic acid isobutyl ester]	148 nM
COc1ccc(CC(=O)O)cc1-c1ccc(F)c2c1CN(C(=O)OC(C)C)CC2 [Example 143, 8-(5-Carboxymethyl-2-methoxy-phenyl)-5-fluoro-3,4-dihydro-1H-isoquinoline-2-carboxylic acid isopropyl ester]	348 nM
O=C(O)COc1cc(Cl)cc(-c2ccc(F)c3c2CN(C(=O)OCc2ccccc2)CC3)c1 [Example 144, 8-(3-Carboxymethoxy-5-chloro-phenyl)-5-fluoro-3,4-dihydro-1H-isoquinoline-2-carboxylic acid benzyl ester]	86.2 nM
O=C(O)COc1ccc(Cl)cc1-c1ccc(F)c2c1CN(C(=O)OCc1ccccc1)CC2 [Example 145, 8-(2-Carboxymethoxy-5-chloro-phenyl)-5-fluoro-3,4-dihydro-1H-isoquinoline-2-carboxylic acid benzyl ester]	430 nM
